Test results reported in paper PMC9133015 (Nature Communications, 2022).
Values joined by “and” are separate entries in the source; they are usually repeats but may differ in a detail not shown here. Equal values may be shown once.

How the values were obtained:
Test in all cases: Kinase inhibitor specificity profiling (Reaction Biology Corporation)
Type in all cases: biochemical
Set-up in all cases: % Enzyme Activity (relative to DMSO controls): concentration or dose not given beside the values
[1] = target: T1, panel of 370 protein kinases (Homo sapiens, UniProt Q12852); settings: kinase DLK/MAP3K12
T1 construct: purchased Reaction Biology Corporation (assay service)
T1 sequence (Q12852 whole entry): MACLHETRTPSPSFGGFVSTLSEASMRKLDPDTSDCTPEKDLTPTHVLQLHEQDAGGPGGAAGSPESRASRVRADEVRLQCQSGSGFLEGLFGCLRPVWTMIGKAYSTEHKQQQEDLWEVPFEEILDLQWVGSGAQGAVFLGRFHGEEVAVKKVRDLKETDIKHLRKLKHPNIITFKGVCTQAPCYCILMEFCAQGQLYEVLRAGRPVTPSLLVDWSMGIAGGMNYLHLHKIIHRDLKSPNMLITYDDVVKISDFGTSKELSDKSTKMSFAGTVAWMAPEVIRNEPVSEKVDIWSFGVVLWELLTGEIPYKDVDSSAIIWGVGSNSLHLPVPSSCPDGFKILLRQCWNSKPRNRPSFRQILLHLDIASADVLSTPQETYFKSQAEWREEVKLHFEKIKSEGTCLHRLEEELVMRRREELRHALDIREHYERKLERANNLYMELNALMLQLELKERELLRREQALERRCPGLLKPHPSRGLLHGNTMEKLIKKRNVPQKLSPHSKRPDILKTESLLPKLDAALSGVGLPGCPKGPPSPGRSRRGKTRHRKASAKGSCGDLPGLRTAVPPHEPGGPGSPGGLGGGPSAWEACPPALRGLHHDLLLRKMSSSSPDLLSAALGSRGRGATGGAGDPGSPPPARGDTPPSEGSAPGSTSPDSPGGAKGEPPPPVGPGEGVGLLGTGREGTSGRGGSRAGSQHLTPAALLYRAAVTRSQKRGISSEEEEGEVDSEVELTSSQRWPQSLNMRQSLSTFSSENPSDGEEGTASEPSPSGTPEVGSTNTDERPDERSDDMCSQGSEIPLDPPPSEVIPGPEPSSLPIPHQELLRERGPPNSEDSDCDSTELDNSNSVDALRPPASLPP

[2] = target: T2, panel of 370 protein kinases (Homo sapiens, UniProt O60674); settings: kinase JAK2
T2 construct: purchased Reaction Biology Corporation (assay service)
T2 sequence (O60674 whole entry): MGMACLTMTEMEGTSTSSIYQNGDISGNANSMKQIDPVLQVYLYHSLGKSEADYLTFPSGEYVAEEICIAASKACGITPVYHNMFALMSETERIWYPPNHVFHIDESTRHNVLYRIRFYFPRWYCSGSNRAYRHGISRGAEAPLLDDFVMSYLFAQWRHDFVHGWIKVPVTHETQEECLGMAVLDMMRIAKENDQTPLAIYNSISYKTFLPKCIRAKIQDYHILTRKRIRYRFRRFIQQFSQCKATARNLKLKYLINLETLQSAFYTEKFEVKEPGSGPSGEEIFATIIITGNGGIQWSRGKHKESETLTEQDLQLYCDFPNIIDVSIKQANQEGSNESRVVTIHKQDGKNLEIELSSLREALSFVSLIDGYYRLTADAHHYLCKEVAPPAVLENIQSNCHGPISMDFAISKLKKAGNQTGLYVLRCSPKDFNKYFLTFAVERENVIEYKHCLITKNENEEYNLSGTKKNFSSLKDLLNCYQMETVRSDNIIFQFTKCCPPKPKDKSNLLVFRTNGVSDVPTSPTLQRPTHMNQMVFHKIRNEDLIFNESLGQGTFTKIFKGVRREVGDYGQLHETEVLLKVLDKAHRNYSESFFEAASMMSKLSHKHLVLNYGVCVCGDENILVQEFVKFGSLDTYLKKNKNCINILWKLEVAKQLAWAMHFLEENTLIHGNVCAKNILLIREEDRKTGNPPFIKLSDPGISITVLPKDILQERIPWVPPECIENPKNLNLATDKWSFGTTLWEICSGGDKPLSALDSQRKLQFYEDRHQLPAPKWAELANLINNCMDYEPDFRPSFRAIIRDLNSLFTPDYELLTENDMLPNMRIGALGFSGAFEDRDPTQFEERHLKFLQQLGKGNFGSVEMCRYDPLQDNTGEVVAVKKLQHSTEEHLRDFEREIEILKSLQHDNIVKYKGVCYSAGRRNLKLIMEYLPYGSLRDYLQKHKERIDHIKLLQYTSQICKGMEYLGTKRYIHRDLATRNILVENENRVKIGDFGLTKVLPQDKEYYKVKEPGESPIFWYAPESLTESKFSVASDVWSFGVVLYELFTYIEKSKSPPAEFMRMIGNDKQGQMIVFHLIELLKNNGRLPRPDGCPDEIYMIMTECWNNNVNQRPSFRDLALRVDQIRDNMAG

[3] = target: T3, panel of 370 protein kinases (Homo sapiens, UniProt O75460); settings: 2 h, kinase ERN1/IRE1; read-out: % Enzyme Activity (relative to DMSO controls)
T3 construct: purchased Reaction Biology Corporation (assay service)

[4] = target: T4, panel of 370 protein kinases (Homo sapiens, UniProt Q07002); settings: 2 h, kinase CDK18/cyclin Y (PCTK3); read-out: % Enzyme Activity (relative to DMSO controls)
T4 construct: purchased Reaction Biology Corporation (assay service)
T4 sequence (Q07002 whole entry): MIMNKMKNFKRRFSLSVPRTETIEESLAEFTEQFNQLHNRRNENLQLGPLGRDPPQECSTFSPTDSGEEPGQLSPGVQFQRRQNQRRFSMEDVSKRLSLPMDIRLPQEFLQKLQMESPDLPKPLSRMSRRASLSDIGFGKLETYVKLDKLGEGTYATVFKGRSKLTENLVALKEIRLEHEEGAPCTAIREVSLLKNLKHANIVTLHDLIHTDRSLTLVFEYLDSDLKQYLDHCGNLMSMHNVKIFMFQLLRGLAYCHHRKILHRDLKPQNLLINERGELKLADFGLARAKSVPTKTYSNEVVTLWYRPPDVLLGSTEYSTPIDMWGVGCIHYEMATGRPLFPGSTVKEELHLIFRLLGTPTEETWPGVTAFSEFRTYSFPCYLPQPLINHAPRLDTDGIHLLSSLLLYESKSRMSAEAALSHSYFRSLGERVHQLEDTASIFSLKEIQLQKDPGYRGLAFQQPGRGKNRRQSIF

[5] = target: T5, panel of 370 protein kinases (Homo sapiens, UniProt P54753); settings: 2 h, kinase EPHB3; read-out: % Enzyme Activity (relative to DMSO controls)
T5 construct: purchased Reaction Biology Corporation (assay service)

[6] = target: T6, panel of 370 protein kinases (Homo sapiens, UniProt O96013); settings: 2 h, kinase PAK4; read-out: % Enzyme Activity (relative to DMSO controls)
T6 construct: purchased Reaction Biology Corporation (assay service)

[7] = target: T7, panel of 370 protein kinases (Homo sapiens, UniProt Q9BWU1); settings: kinase CDK19/cyclin C
T7 construct: purchased Reaction Biology Corporation (assay service)
T7 sequence (Q9BWU1 whole entry): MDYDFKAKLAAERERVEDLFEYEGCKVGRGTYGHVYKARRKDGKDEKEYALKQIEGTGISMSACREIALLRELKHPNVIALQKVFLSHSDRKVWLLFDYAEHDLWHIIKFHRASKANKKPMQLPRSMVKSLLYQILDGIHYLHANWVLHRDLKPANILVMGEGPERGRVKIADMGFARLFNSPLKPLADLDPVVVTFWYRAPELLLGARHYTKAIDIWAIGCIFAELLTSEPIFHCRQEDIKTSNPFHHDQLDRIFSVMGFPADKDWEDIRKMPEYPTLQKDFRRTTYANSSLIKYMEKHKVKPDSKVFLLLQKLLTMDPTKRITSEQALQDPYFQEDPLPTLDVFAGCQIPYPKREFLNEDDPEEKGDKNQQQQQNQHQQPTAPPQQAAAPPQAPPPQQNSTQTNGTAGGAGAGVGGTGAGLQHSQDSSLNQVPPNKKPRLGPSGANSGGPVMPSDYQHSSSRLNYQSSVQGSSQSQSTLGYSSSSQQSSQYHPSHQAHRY

[8] = target: T8, panel of 370 protein kinases (Homo sapiens, UniProt O60307); settings: 2 h, kinase MAST3; read-out: % Enzyme Activity (relative to DMSO controls)
T8 construct: purchased Reaction Biology Corporation (assay service)

[9] = target: T9, panel of 370 protein kinases (Homo sapiens, UniProt Q9H093); settings: kinase SNARK/NUAK2
T9 construct: purchased Reaction Biology Corporation (assay service)
T9 sequence (Q9H093 whole entry): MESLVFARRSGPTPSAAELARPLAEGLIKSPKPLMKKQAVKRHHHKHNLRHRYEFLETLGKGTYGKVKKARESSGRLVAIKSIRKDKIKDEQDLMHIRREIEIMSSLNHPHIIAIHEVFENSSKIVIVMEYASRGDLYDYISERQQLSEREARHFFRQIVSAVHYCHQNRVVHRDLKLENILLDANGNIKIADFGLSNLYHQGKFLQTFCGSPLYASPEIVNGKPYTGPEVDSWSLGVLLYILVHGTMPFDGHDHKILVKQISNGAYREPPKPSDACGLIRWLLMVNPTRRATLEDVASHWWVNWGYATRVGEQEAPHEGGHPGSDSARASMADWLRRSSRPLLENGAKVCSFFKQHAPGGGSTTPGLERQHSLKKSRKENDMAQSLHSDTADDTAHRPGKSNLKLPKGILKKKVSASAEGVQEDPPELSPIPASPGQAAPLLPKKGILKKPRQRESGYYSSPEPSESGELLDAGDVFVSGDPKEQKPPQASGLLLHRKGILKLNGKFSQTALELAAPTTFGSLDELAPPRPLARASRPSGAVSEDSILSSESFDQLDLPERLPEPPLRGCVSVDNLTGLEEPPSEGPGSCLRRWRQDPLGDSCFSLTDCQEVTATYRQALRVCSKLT

[10] = target: T10, panel of 370 protein kinases (Homo sapiens, UniProt O75716); settings: 2 h, kinase STK16; read-out: % Enzyme Activity (relative to DMSO controls)
T10 construct: purchased Reaction Biology Corporation (assay service)

[11] = target: T11, panel of 370 protein kinases (Homo sapiens, UniProt P42680); settings: 2 h, kinase TEC; read-out: % Enzyme Activity (relative to DMSO controls)
T11 construct: purchased Reaction Biology Corporation (assay service)

[12] = target: T12, panel of 370 protein kinases (Homo sapiens, UniProt P29322); settings: 2 h, kinase EPHA8; read-out: % Enzyme Activity (relative to DMSO controls)
T12 construct: purchased Reaction Biology Corporation (assay service)

[13] = target: T13, panel of 370 protein kinases (Homo sapiens, UniProt Q96PY6); settings: 2 h, kinase NEK1; read-out: % Enzyme Activity (relative to DMSO controls)
T13 construct: purchased Reaction Biology Corporation (assay service)

[14] = target: T14, panel of 370 protein kinases (Homo sapiens, UniProt P22455); settings: 2 h, kinase FGFR4; read-out: % Enzyme Activity (relative to DMSO controls)
T14 construct: purchased Reaction Biology Corporation (assay service)

[15] = target: T15, panel of 370 protein kinases (Homo sapiens, UniProt Q16288); settings: 2 h, kinase TRKC; read-out: % Enzyme Activity (relative to DMSO controls)
T15 construct: purchased Reaction Biology Corporation (assay service)

[16] = target: T16, panel of 370 protein kinases (Homo sapiens, UniProt P15056); settings: 2 h, kinase BRAF; read-out: % Enzyme Activity (relative to DMSO controls)
T16 construct: purchased Reaction Biology Corporation (assay service)
T16 sequence (P15056 whole entry): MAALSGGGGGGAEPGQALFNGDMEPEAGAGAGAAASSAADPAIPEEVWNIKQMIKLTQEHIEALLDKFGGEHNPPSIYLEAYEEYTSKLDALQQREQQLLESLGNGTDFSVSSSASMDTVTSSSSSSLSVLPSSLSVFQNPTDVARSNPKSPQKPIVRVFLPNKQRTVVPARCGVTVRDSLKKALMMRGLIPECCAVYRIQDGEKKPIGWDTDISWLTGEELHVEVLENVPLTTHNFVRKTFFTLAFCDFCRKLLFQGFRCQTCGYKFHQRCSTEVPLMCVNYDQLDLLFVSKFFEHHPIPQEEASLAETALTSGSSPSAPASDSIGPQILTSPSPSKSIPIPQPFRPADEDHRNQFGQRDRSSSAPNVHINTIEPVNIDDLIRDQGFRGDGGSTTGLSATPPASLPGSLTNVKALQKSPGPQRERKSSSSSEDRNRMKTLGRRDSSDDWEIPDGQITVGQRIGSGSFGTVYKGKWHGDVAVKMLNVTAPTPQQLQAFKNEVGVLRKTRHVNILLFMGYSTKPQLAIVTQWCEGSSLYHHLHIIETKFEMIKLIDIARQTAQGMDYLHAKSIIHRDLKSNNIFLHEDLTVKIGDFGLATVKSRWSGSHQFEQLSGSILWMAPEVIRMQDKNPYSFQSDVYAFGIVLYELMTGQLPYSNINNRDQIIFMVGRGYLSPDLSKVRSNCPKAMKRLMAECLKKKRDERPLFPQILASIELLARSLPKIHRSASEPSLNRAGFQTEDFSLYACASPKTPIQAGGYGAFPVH

[17] = target: T17, panel of 370 protein kinases (Homo sapiens, UniProt P46734); settings: 2 h, kinase MEK3; read-out: % Enzyme Activity (relative to DMSO controls)
T17 construct: purchased Reaction Biology Corporation (assay service)

[18] = target: T18, panel of 370 protein kinases (Homo sapiens, UniProt P45984); settings: kinase JNK2
T18 construct: purchased Reaction Biology Corporation (assay service)
T18 sequence (P45984 whole entry): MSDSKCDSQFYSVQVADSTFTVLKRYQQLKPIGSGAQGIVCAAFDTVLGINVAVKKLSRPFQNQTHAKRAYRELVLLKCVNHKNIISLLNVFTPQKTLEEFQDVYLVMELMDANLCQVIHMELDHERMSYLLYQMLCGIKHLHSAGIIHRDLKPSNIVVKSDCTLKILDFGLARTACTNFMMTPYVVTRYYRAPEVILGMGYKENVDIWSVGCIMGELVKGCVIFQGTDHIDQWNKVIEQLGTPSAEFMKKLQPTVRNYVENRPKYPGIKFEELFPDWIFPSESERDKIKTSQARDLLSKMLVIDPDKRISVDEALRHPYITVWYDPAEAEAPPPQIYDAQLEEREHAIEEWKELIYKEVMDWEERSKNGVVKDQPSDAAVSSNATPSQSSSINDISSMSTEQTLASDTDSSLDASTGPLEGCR

[19] = target: T19, panel of 370 protein kinases (Homo sapiens, UniProt Q02750); settings: 2 h, kinase MEK1; read-out: % Enzyme Activity (relative to DMSO controls)
T19 construct: purchased Reaction Biology Corporation (assay service)

[20] = target: T20, panel of 370 protein kinases (Homo sapiens, UniProt P41743); settings: 2 h, kinase PKCiota; read-out: % Enzyme Activity (relative to DMSO controls)
T20 construct: purchased Reaction Biology Corporation (assay service)

[21] = target: T21, panel of 370 protein kinases (Homo sapiens, UniProt P12931); settings: 2 h, kinase c-Src; read-out: % Enzyme Activity (relative to DMSO controls)
T21 construct: purchased Reaction Biology Corporation (assay service)

[22] = target: T22, panel of 370 protein kinases (Homo sapiens, UniProt O43353); settings: 2 h, kinase RIPK2; read-out: % Enzyme Activity (relative to DMSO controls)
T22 construct: purchased Reaction Biology Corporation (assay service)

SMILES: CCN1CCN(C(=O)c2ccc(Nc3ncc(F)c(-c4ccc5nc(N(C)C)sc5c4)n3)nc2)CC1 [YK-2-69]
- % Enzyme Activity (relative to DMSO controls) [1]: 98.52% and 93.92%
- % Enzyme Activity (relative to DMSO controls) [2]: 101.21% and 93.21%
- remaining activity at 1 µM [3]: 89.3%
- remaining activity at 1 µM [4]: 99.1%
- remaining activity at 1 µM [5]: 112%
- remaining activity at 1 µM [6]: 108%
- % Enzyme Activity (relative to DMSO controls) [7]: 59.42% and 58.05%
- remaining activity at 1 µM [8]: 88.1%
- % Enzyme Activity (relative to DMSO controls) [9]: 95.57% and 95.00%
- remaining activity at 1 µM [10]: 57.5%
- remaining activity at 1 µM [11]: 107%
- remaining activity at 1 µM [12]: 102%
- remaining activity at 1 µM [13]: 69.2%
- remaining activity at 1 µM [14]: 88.9%
- remaining activity at 1 µM [15]: 77.7%
- remaining activity at 1 µM [16]: 95.2%
- remaining activity at 1 µM [17]: 103%
- % Enzyme Activity (relative to DMSO controls) [18]: 83.83% and 82.64%
- remaining activity at 1 µM [19]: 100%
- remaining activity at 1 µM [20]: 84.8%
- remaining activity at 1 µM [21]: 99.7%
- remaining activity at 1 µM [22]: 48.3%
